The text below walks through data of article PMC12169489, “Allosteric Covalent Inhibitors of the STAT3 Transcription Factor from Virtual Screening” (ACS Medicinal Chemistry Letters, 2025).

Structures are written as SMILES. “And” between values parts separate entries of the source, which are not always exact repeats. Equal entries are not always repeated.

The first assay deals with T1, STAT3 protein (residues 127–688) (Homo sapiens, UniProt P40763).
T1 construct: The STAT3 protein (residues 127–688) was expressed and purified; made in house
T1 sequence (P40763 127-688): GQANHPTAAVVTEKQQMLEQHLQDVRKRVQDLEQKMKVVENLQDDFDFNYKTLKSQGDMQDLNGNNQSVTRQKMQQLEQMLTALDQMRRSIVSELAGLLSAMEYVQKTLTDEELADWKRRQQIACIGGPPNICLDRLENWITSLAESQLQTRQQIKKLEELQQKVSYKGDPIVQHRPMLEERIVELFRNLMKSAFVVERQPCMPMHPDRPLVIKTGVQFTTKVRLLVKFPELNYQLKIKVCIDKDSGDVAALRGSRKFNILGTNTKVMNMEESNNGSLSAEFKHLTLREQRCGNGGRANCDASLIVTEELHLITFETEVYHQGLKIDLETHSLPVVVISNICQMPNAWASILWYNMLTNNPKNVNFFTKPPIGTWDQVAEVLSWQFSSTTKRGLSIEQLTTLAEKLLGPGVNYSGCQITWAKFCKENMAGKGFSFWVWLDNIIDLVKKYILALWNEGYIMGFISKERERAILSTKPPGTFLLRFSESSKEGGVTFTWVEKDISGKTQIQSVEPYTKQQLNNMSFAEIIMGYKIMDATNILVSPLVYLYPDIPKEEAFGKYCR
In words: Fluorescence polarization (FP) assay, 5-FAM-G(pTyr)LPQTV-NH2 peptide. The assay is classed as binding. The following applies: 200 nM STAT3, 5 nM fluorescent peptide, 1 h at 37 °C preincubation, mean ± 95% confidence interval, 3 replicas. The protocol:
The STAT3 protein (residues 127–688) was expressed and purified as described in our recent work. Fluorescence polarization assays were performed on a Molecular Devices SpectraMax iD5Multimode Microplate Reader (San Jose, CA, USA) using Greiner black 384-well flat-bottom nonbinding microplates with 40 μL final well volumes. The fluorescent peptide (5-FAM-G(pTyr)-LPQTV-NH2, purchased from GenScript Biotech Ltd., Piscataway, NJ, USA), as well as the protein were diluted with a buffer containing 50 mM NaCl, 10 mM HEPES (4-(2-hydroxyethyl)-1-piperazineethanesulfonic acid), 1 mM EDTA (ethylenediaminetetraacetic acid), 2 mM DTT (dithiothreitol), and 0.1% Triton X-100, pH 7.5. The final concentration of the STAT3 protein was 200 nM, and the fluorescent peptide was added at a final concentration of 5 nM. The wells were treated with varying concentrations of inhibitor compounds, with a 5% final DMSO content. Protein and inhibitors were incubated at 37 °C for 1 h. Then the fluorescence peptide was added, and then the plate was incubated for another 20 min prior to the fluorescence readout (extinction wavelength: 475 nm, emission wavelength: 520 nm). The measurements were carried out using 3 parallel biological replicas. Fluorescence polarization was calculated from the perpendicular and parallel fluorescence intensities and then plotted against concentration. The IC50 values were determined after fitting […] dose–response curves on data points using GraphPad Prism 8.0.1. software.
Figure S6. Fluorescence polarization assay results. Nonlinear curve fitting was used ([Inhibitor] vs. response - Variable slope (four parameters)) with least squares fitting. IC50s are presented with 95% confidence intervals, measurements were done in 3 parallel biological replicas.
Background: Polarisation of emitted light reports the rotation of a fluorescent probe.
For orientation: IC50 means the concentration needed to halve the response being measured. A low value points to inhibition by little substance. As to `C=CC(=O)N1CCCC(C(=O)NCc2ccc3c(c2)OCO3)C1` (centres unmarked) [6a, 1-acryloyl-N-(benzo[d][1,3]dioxol-5-ylmethyl)piperidine-3-carboxamide], half-maximal inhibition (IC50) required 50.4 ± 39.4 µM.

The compound `C=CC(=O)N1CCCC(O)(C(=O)NCc2ccc3c(c2)OCO3)C1` (centres unmarked) [6b, 1-acryloyl-N-(benzo[d][1,3]dioxol-5-ylmethyl)-3-hydroxypiperidine-3-carboxamide] returned an IC50 of 2.91 ± 0.66 µM.

`CCC(=O)N1CCCC(C(=O)NCc2ccc3c(c2)OCO3)C1` (centres unmarked) [10a, N-(benzo[d][1,3]dioxol-5-ylmethyl)-1-propionylpiperidine-3-carboxamide] showed an IC50 of 141 ± 53.4 µM.

Compound `CCC(=O)N1CCCC(O)(C(=O)NCc2ccc3c(c2)OCO3)C1` (centres unmarked) [10b, N-(benzo[d][1,3]dioxol-5-ylmethyl)-3-hydroxy-1-propionylpiperidine-3-carboxamide] displayed an IC50 of 86.7 ± 49.9 µM.

`C=CC(=O)N1CCCC(C(=O)NCc2cc(Br)c3c(c2)OCO3)C1` (centres unmarked) [K2] came in with a half-inhibitory concentration (IC50) of 40.7 ± 16.7 µM.

Take `C=CC(=O)N1CC(C(=O)NCCN2CC3CCCCN3C2=O)C1` (centres unmarked) [K3]: the IC50 turned out to be 255 ± 124 µM.

For the compound `C=CC(=O)N1CCC(C(=O)NCC(O)c2c(F)cccc2F)CC1` (centres unmarked) [K6], the IC50 is 44.9 ± 22.7 µM.

On to `C=CC(=O)N1CCC(C(=O)N2CCN(C(=O)Cc3ccccc3C)CC2)CC1` [K10], for which the IC50 is 94.6 µM and 94.5 µM.

`C=CS(=O)(=O)N1CCCC(C(=O)NCc2ccc3c(c2)OCO3)C1` (centres unmarked) [compound 8, N-(benzo[d][1,3]dioxol-5-ylmethyl)-1-(vinylsulfonyl)piperidine-3-carboxamide] had an IC50 of 33.4 ± 5 µM.

The target of the next assay is STAT3 protein (Homo sapiens, UniProt P40763). In words: Intact protein LC-MS labelling. The assay is classed as binding.
STAT3 protein, sequence (P40763 127-688 limits assumed): as the sequence (P40763 127-688) above
Conditions: not given
An excerpt:
1 Overview of the virtual screening workflow and hit follow-up. (a) Overview of the covalent docking virtual screening workflow, including representation of the key residues inside the binding site and highlighting the C259 residue. Remaining molecules after each step are included in parentheses. (b) Schematic representation of the expected mass peaks and shifts from the MS results for single and multiple labeling. The values assigned to the peaks for other than the peak corresponding to the unlabeled protein represents mass shift(s) resulting from successful labeling.
RPLC-MS analysis of the intact proteins were performed on a a Triple TOF 5600+ hybrid Quadrupole-TOF LC/MS/MS system (Sciex, MA, USA) equipped with a DuoSpray IonSource coupled with a Shimadzu Prominence LC20 UFLC (Shimadzu, Japan) system consisting of quaternary pump, an autosampler and a thermostatted column compartment. Chromatographic separation was achieved on the Discovery® BIO Wide Pore C-18-5 (250 mm × 2.1mm, 5 μm, 300 Å) HPLC column. Sample was eluted in gradient elution mode using solvent A (0.1% formic acid in water) and solvent B (0.1% formic acid in ACN). The initial condition was 5% B for 7 min, followed by a linear gradient to 90% B by […], from 55 to 63 min 90% B was retained; and from 63 to 65 min back to initial condition with 5 % eluent B and retained for 10 min. Flow rate was set to 0.2 ml/min. […]
As to `C=CC(=O)N1CCCC(O)(C(=O)NCc2ccc3c(c2)OCO3)C1` (centres unmarked) [6b, 1-acryloyl-N-(benzo[d][1,3]dioxol-5-ylmethyl)-3-hydroxypiperidine-3-carboxamide], the “Covalent labelling of STAT3 (single vs multiple)” value is on record as “single labeling”.

For the compound `C=CS(=O)(=O)N1CCCC(C(=O)NCc2ccc3c(c2)OCO3)C1` (centres unmarked) [compound 8, N-(benzo[d][1,3]dioxol-5-ylmethyl)-1-(vinylsulfonyl)piperidine-3-carboxamide], the “Covalent labelling of STAT3 (single vs multiple)” value is given as “labeled the protein at multiple residues”.
